IC50 and Kd data for 38 compounds are collected here from patent publication US20240025906A1 (NEURON23, INC., priority 2022, published 2024).

The subject of assay [1] is JAK1/TYK2 pSTAT5 (Tyr694/699) in THP-1 cell line. Description: IFNa-stimulated JAK1/TYK2 pSTAT5 (Tyr694/699) inhibition cellular assay, AlphaLISA. The class given is cell-based. The settings on record: THP-1 cells, IFNa-stimulated, AlphaLISA (Assay B), read-out: Cellular_THP1_IFNa-pSTATS_TYK2. In short, it runs like this: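 THP-1, 2e4 cells/well, HBSS; cpd 1 h 37 °C (10000–0.04 nM final, 6-fold, 8 pt); IFNa 100 ng/mL added, 30 min; lyse, freeze −80 °C; pSTAT5 AlphaLISA, 615 nm; 4PL IC50, bottom fixed 0, slope −1.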
For orientation: Alpha assays give light when donor and acceptor beads are brought close together.

The target in assay [2] is T1, TYK2 JH2 (Homo sapiens, UniProt P29597).
T1 construct: purchased DiscoverX (KINOMEscan KdELECT service); host or cells: E. coli BL21-derived (T7 phage display) or HEK-293
T1 sequence (P29597 589-875 limits assumed): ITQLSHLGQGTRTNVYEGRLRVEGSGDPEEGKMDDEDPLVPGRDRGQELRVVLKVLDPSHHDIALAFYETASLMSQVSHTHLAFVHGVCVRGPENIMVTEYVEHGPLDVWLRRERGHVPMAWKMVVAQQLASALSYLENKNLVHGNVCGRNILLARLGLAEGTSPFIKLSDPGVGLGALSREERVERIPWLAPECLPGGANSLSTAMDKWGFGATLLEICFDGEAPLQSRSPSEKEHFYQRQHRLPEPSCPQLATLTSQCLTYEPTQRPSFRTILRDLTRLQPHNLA
Description: TYK2 JH2 binding assay (KINOMEscan KdELECT competitive binding). The settings on record: TYK2 JH2 domain, read-out: Biochemical TYK2_DiscoverX_JH2_BND_Kd. In short, it runs like this: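 JH2-domain fragment, expressed as T7 phage tag in BL21-derived E. coli or DNA-tagged from HEK-293, competed with test compound against bead-immobilized biotinylated ligand in binding buffer (0.9% DMSO). 1 h shaking at room temperature; bound kinase eluted with 0.5 μM free ligand and quantified by qPCR. Kd from 11-point 3-fold dilutions.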

The mark [3] stands for this setting: DiscoverX KINOMEscan KdELECT (Assay A).

pIC50, pKd: −log10 of the molar value. Where a name gives a salt, the structure may show the parent alone. Read-outs that look alike come from different tables or passages of the source.

Take `CNc1ncc(-c2nc3cc(OC)ccc3o2)c2cc(NC(=O)[C@@H]3C[C@@H]3C(F)(F)F)ncc12` (single isomer, unassigned) [Example 397]: the pIC50 in assay [1] (Homo sapiens) was no less than 6.30. Further, the pKd in assay [2] (setting [3]) is no less than 7.00.

As to `CNc1ncc(-c2nc3cc(OC)ccc3o2)c2cc(NC(=O)[C@H]3C[C@H]3C(F)(F)F)ncc12` (single isomer, unassigned) [Example 398], the pIC50 in assay [1] (Homo sapiens) was less than 6.30. Besides, the pKd in assay [2] (setting [3]) was no less than 7.00.

Regarding `CNc1ncc(-c2nc3cc(OC)ccc3o2)c2cc(NC(=O)[C@@H]3C[C@@H]3CF)ncc12` (single isomer, unassigned) [Example 400], in assay [1] (Homo sapiens), the pIC50 is no less than 6.30. For the same compound, the pKd in assay [2] (setting [3]) is no less than 7.00.

For `CNc1ncc(-c2nc3cc(OC)ccc3o2)c2cc(NC(=O)[C@H]3C[C@H]3CF)ncc12` (single isomer, unassigned) [Example 401], the pIC50 in assay [1] (Homo sapiens) is no less than 6.30. In assay [2] (setting [3]), the pKd is no less than 7.00.

Regarding `CNc1ncc(-c2nc3cc(N4CCO[C@@H](C)C4)ccc3o2)c2cc(NC(=O)[C@H]3C[C@H]3C(F)F)ncc12` (single isomer, unassigned) [Example 414], the pIC50 in assay [1] (Homo sapiens) is no less than 6.30. Besides, the pKd in assay [2] (setting [3]) was no less than 7.00.

Take `CNc1ncc(-c2nc3cc(N4CCO[C@@H](C)C4)ccc3o2)c2cc(NC(=O)[C@@H]3C[C@@H]3C(F)F)ncc12` (single isomer, unassigned) [Example 415]: in assay [1] (Homo sapiens), the pIC50 was no less than 6.30. Moreover, the pKd in assay [2] (setting [3]) is no less than 7.00.

On to `[2H]C([2H])([2H])Nc1ncc(-c2nc3cc(OC)ccc3o2)c2cc(NC(=O)[C@@H]3C[C@@H]3C)ncc12` (single isomer, unassigned) [Example 437], for which the pIC50 in assay [1] (Homo sapiens) is no less than 6.30. For the same compound, the pKd in assay [2] (setting [3]) is no less than 7.00.

Turning to `[2H]C([2H])([2H])Nc1ncc(-c2nc3cc(OC)ccc3o2)c2cc(NC(=O)[C@H]3C[C@H]3C)ncc12` (single isomer, unassigned) [Example 438], the pIC50 in assay [1] was no less than 6.30. In assay [2] (setting [3]), the pKd was no less than 7.00.

As for `CNc1ncc(-c2nc3cc(N4CCOCC4)ccc3o2)c2cc(NC(=O)[C@H]3C[C@H]3CF)ncc12` (single isomer, unassigned) [Example 451], in assay [1] (Homo sapiens), the pIC50 is no less than 6.30. For the same compound, in assay [2] (setting [3]), the pKd is no less than 7.00.

As to `CNc1ncc(-c2nc3cc(N4CCOCC4)ccc3o2)c2cc(NC(=O)[C@@H]3C[C@@H]3CF)ncc12` (single isomer, unassigned) [Example 452], the pIC50 in assay [1] (Homo sapiens) was no less than 6.30. Besides, in assay [2] (setting [3]), the pKd was no less than 7.00.

With `CNc1ncc(-c2nc3cc(OC)ccc3o2)c2cc(NC(=O)[C@H]3C[C@H]3CO)ncc12` (single isomer, unassigned) [Example 467], in assay [1] (Homo sapiens), the pIC50 is no less than 6.30. Besides, in assay [2] (setting [3]), the pKd is no less than 7.00.

Take `CNc1ncc(-c2nc3cc(OC)ccc3o2)c2cc(NC(=O)[C@@H]3C[C@@H]3CO)ncc12` (single isomer, unassigned) [Example 468]: the pIC50 in assay [1] (Homo sapiens) was no less than 6.30. Moreover, in assay [2] (setting [3]), the pKd was no less than 7.00.

As for `CC[C@@H]1C[C@H]1C(=O)Nc1cc2c(-c3nc4ccc(OC)cn4n3)cnc(NC)c2cn1` (single isomer, unassigned) [Example 522], in assay [1] (Homo sapiens), the pIC50 is no less than 6.30. The pKd in assay [2] (setting [3]) is no less than 7.00.

As to `CNc1ncc(-c2nc3ccc(N4CCOCC4)cn3n2)c2cc(NC(=O)[C@@H](C)F)ncc12` (single isomer, unassigned) [Example 532], the pIC50 in assay [1] (Homo sapiens) was no less than 6.30. In addition, the pKd in assay [2] (setting [3]) is no less than 7.00.

As to `CNc1ncc(-c2nc3ccc(N4CCOCC4)cn3n2)c2cc(NC(=O)[C@H](C)F)ncc12` (single isomer, unassigned) [Example 533], in assay [1] (Homo sapiens), the pIC50 is less than 6.30. The pKd in assay [2] (setting [3]) was no less than 7.00.

For `CNc1ncc(-c2nc3ccc(N4CCOCC4)cn3n2)c2cc(NC(=O)[C@H]3C[C@H]3C(F)F)ncc12` (single isomer, unassigned) [Example 534], the pIC50 in assay [1] (Homo sapiens) is no less than 6.30. For the same compound, the pKd in assay [2] (setting [3]) was no less than 7.00.

On to `CNc1ncc(-c2nc3ccc(N4CCOCC4)cn3n2)c2cc(NC(=O)[C@@H]3C[C@@H]3C(F)F)ncc12` (single isomer, unassigned) [Example 535], for which the pIC50 in assay [1] (Homo sapiens) was no less than 6.30. Moreover, the pKd in assay [2] (setting [3]) was no less than 7.00.

Regarding `CNc1ncc(-c2nc3ccc(N4CCO[C@@H](C)C4)cn3n2)c2cc(NC(=O)[C@H]3C[C@H]3C(F)(F)F)ncc12` (single isomer, unassigned) [Example 541], the pIC50 in assay [1] (Homo sapiens) was no less than 6.30. In addition, in assay [2] (setting [3]), the pKd is no less than 7.00.

On to `CNc1ncc(-c2nc3ccc(N4CCO[C@@H](C)C4)cn3n2)c2cc(NC(=O)[C@@H]3C[C@@H]3C(F)(F)F)ncc12` (single isomer, unassigned) [Example 542], for which the pIC50 in assay [1] (Homo sapiens) is no less than 6.30. The pKd in assay [2] (setting [3]) is no less than 7.00.

For `[2H]C([2H])([2H])Nc1ncc(-c2nc3ccc(N4CCO[C@@H](C)C4)cn3n2)c2cc(NC(=O)[C@H]3C[C@H]3C(F)F)ncc12` (single isomer, unassigned) [Example 574], the pIC50 in assay [1] (Homo sapiens) was no less than 6.30. For the same compound, the pKd in assay [2] (setting [3]) is no less than 7.00.

In the case of `CC[C@H]1C[C@@H]1C(=O)Nc1cc2c(-c3nc4ccc(N5CCOCC5)cn4n3)cnc(NC)c2cn1` (single isomer, unassigned) [Example 585], the pIC50 in assay [1] (Homo sapiens) was no less than 6.30. Also, the pKd in assay [2] (setting [3]) was no less than 7.00.

For `CC[C@@H]1C[C@H]1C(=O)Nc1cc2c(-c3nc4ccc(N5CCOCC5)cn4n3)cnc(NC)c2cn1` (single isomer, unassigned) [Example 586], the pIC50 in assay [1] (Homo sapiens) was no less than 6.30. Also, the pKd in assay [2] (setting [3]) is no less than 7.00.

As for `CNc1ncc(-c2nc3ccc(N4CCOCC4)cn3n2)c2cc(NC(=O)[C@@H]3CC34CC4)ncc12` (single isomer, unassigned) [Example 587, formate], in assay [1] (Homo sapiens), the pIC50 was no less than 6.30. In assay [2] (setting [3]), the pKd is no less than 7.00.

On to `CNc1ncc(-c2nc3ccc(N4CCOCC4)cn3n2)c2cc(NC(=O)[C@H]3CC34CC4)ncc12` (single isomer, unassigned) [Example 588, formate], for which the pIC50 in assay [1] (Homo sapiens) is no less than 6.30. Also, the pKd in assay [2] (setting [3]) was no less than 7.00.

For the compound `CNc1ncc(C#Cc2ccc3c(c2)OC[C@H](COC)O3)c2cc(NC(=O)C3CC3)ncc12` (single isomer, unassigned) [Example 698], the pIC50 in assay [1] (Homo sapiens) is no less than 6.30. Also, in assay [2] (KINOMEscan KdELECT (Assay A)), the pKd is no less than 7.00.

As for `CNc1ncc(C#Cc2ccc3c(c2)OC[C@@H](COC)O3)c2cc(NC(=O)C3CC3)ncc12` (single isomer, unassigned) [Example 699], in assay [1] (Homo sapiens), the pIC50 is no less than 6.30. Further, the pKd in assay [2] (KINOMEscan KdELECT (Assay A)) was no less than 7.00.

Turning to `CNc1ncc(C#Cc2ccc(OC)cn2)c2cc(NC(=O)[C@H]3C[C@H]3C(F)F)ncc12` (single isomer, unassigned) [Example 745], the pIC50 in assay [1] (Homo sapiens) was no less than 6.30. In addition, the pKd in assay [2] (KINOMEscan KdELECT (Assay A)) is no less than 7.00.

In the case of `CNc1ncc(C#Cc2ccc(OC)cn2)c2cc(NC(=O)[C@@H]3C[C@@H]3C(F)(F)F)ncc12` (single isomer, unassigned) [Example 746], the pIC50 in assay [1] (Homo sapiens) was no less than 6.30. Besides, the pKd in assay [2] (KINOMEscan KdELECT (Assay A)) was no less than 7.00.

With `CNc1ncc(C#Cc2ccc(OC)cn2)c2cc(NC(=O)[C@H]3C[C@H]3C(F)(F)F)ncc12` (single isomer, unassigned) [Example 747], the pIC50 in assay [1] (Homo sapiens) is no less than 6.30. For the same compound, the pKd in assay [2] (KINOMEscan KdELECT (Assay A)) was no less than 7.00.

Consider `CNc1ncc(C#Cc2cc3ccccn3n2)c2cc(NC(=O)[C@@H]3C[C@@H]3C(F)F)ncc12` (single isomer, unassigned) [Example 754], for which, in assay [1] (Homo sapiens), the pIC50 is no less than 6.30. Further, in assay [2] (KINOMEscan KdELECT (Assay A)), the pKd is no less than 7.00.

Take `CNc1ncc(C#Cc2cc3ccccn3n2)c2cc(NC(=O)[C@H]3C[C@H]3C(F)F)ncc12` (single isomer, unassigned) [Example 755]: the pIC50 in assay [1] (Homo sapiens) is no less than 6.30. Further, the pKd in assay [2] (KINOMEscan KdELECT (Assay A)) was no less than 7.00.

With `CNc1ncc(C#Cc2ccc(OCC(C)(C)O)cc2)c2cc(NC(=O)[C@@H]3C[C@@H]3C(F)F)ncc12` (single isomer, unassigned) [Example 756], in assay [1] (Homo sapiens), the pIC50 is no less than 6.30. Moreover, in assay [2] (KINOMEscan KdELECT (Assay A)), the pKd is no less than 7.00.

`CNc1ncc(C#Cc2ccc(OCC(C)(C)O)cc2)c2cc(NC(=O)[C@H]3C[C@H]3C(F)F)ncc12` (single isomer, unassigned) [Example 757]: the pIC50 in assay [1] (Homo sapiens) was no less than 6.30. Also, in assay [2] (KINOMEscan KdELECT (Assay A)), the pKd was no less than 7.00.

With `CNc1ncc(C#Cc2ccc(OC3CN(C(C)=O)C3)cc2)c2cc(NC(=O)[C@H]3C[C@H]3C(F)F)ncc12` (single isomer, unassigned) [Example 776], the pIC50 in assay [1] (Homo sapiens) is no less than 6.30. The pKd in assay [2] (KINOMEscan KdELECT (Assay A)) is no less than 7.00.

As to `CNc1ncc(C#Cc2ccc(OC3CN(C(C)=O)C3)cc2)c2cc(NC(=O)[C@@H]3C[C@@H]3C(F)F)ncc12` (single isomer, unassigned) [Example 777], the pIC50 in assay [1] (Homo sapiens) is no less than 6.30. Besides, the pKd in assay [2] (KINOMEscan KdELECT (Assay A)) is no less than 7.00.

For the compound `CNc1ncc(/C=C/c2ccc3c(c2)OC[C@H](COC)O3)c2cc(NC(=O)C3CC3)ncc12` (single isomer, unassigned) [Example 790], the pIC50 in assay [1] (Homo sapiens) is no less than 6.30. Also, the pKd in assay [2] (KINOMEscan KdELECT (Assay A)) is no less than 7.00.

With `CNc1ncc(/C=C/c2ccc3c(c2)OC[C@@H](COC)O3)c2cc(NC(=O)C3CC3)ncc12` (single isomer, unassigned) [Example 791], the pIC50 in assay [1] (Homo sapiens) is no less than 6.30. Moreover, the pKd in assay [2] (KINOMEscan KdELECT (Assay A)) was no less than 7.00.

For `CNc1ncc(C#Cc2ccc(OC)cn2)c2cc(NC(=O)[C@H]3C[C@H]3CF)ncc12` (single isomer, unassigned) [Example 822], the pIC50 in assay [1] (Homo sapiens) is no less than 6.30. Besides, the pKd in assay [2] (KINOMEscan KdELECT (Assay A)) is no less than 7.00.
